Experiment in all cases: SAMDI mass spectrometry HDAC inhibition assay
What all share (type): biochemical

In one assay the target is HDAC1 (Homo sapiens (Human), UniProt Q13547). The following applies: for inhibition at 10 µM / HDAC1 % inhibition: given if the IC50 was above 10 μM, at 10 μM. How it is done:
(§1) There is precedence that fluorescently labeled substrates can perturb enzyme activity and the effect of inhibitors. […] Additionally, 3-hydroxypyridine-2-ones are highly colored solids and might lead to false positive signals. Mindful of these facts, a label-free SAMDI (self-assembled monolayers for MALDI) mass spectrometry assay was also used to assess HDAC inhibition.
(§2) The SAMDI technique, wherein self-assembled monolayers (SAM) of alkanethiolates on gold are analyzed by matrix assisted laser desorption/ionization (MALDI) mass spectrometry, has been widely used to characterize many biochemical activities, including the deacetylase enzyme family.

In the next assay the target is HDAC8 (Homo sapiens (Human), UniProt Q9BY41). The following applies: for inhibition at 10 µM / HDAC8 % inhibition: given if the IC50 was above 10 μM, at 10 μM. As for the experimental part: as §1, §2
The next assay has as its target HDAC6 (Homo sapiens (Human), UniProt Q9UBN7). The following applies: for IC50: read-out: HDAC6 IC50; for inhibition at 10 µM: read-out: HDAC6 % inhibition. As for the experimental part: as §1
The SAMDI technique, wherein self-assembled monolayers (SAM) of alkanethiolates on gold are analyzed by matrix assisted laser desorption/ionization (MALDI) mass spectrometry, has been widely used to characterize many biochemical activities, including the deacetylase enzyme family. The SAMDI assay was used to measure the inhibition constant (K1) of fragments against HDAC1, HDAC6 and HDAC8 using a previously identified preferred HDAC substrate.

The structures appear in SMILES notation. Like-named read-outs stand apart in the source and are kept apart here.

Sequence of HDAC1 (Q13547 whole entry): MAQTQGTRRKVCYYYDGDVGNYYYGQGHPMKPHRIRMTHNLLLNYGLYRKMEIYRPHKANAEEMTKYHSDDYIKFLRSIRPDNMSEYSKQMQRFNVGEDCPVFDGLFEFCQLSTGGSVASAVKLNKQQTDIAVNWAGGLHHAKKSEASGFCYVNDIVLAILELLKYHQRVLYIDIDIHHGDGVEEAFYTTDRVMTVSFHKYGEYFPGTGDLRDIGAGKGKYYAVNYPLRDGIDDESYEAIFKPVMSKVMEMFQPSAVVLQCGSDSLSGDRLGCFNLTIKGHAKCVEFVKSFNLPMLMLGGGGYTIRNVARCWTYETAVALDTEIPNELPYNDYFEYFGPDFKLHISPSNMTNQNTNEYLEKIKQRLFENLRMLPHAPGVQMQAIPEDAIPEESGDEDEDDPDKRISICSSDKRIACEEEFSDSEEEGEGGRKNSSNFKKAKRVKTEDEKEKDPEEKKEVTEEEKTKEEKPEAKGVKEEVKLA
Sequence of HDAC6 (Q9UBN7 whole entry, the tested form may be a part): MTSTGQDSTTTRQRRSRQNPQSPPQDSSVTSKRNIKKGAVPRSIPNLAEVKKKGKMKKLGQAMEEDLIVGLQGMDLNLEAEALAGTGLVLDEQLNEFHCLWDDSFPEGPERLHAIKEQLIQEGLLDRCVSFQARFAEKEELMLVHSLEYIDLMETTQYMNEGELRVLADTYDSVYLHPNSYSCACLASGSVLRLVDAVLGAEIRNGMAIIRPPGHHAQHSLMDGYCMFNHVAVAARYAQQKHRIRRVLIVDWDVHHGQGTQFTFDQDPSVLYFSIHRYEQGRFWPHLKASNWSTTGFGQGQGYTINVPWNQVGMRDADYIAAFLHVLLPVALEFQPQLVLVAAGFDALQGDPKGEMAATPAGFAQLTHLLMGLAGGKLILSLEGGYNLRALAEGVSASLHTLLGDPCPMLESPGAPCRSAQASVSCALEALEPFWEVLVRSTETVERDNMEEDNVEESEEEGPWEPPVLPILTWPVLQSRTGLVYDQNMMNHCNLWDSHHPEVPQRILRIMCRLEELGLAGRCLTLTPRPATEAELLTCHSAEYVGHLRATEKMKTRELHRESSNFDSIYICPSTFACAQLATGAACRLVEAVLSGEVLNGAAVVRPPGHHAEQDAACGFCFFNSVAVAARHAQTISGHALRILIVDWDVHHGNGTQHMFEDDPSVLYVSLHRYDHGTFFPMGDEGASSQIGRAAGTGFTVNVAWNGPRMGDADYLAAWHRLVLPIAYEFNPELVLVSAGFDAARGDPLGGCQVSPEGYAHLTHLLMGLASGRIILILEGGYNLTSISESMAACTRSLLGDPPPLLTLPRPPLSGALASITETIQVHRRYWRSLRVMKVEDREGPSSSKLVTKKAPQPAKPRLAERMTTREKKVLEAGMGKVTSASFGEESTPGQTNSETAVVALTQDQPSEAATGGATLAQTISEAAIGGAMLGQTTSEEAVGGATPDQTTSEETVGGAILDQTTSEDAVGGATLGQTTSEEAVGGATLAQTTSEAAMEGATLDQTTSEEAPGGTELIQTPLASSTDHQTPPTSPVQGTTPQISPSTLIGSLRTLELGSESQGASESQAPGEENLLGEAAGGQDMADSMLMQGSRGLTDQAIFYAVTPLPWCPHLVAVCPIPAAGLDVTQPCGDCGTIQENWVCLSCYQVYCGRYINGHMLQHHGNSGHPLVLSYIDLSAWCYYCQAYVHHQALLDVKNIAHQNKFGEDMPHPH
Sequence of HDAC8 (Q9BY41 whole entry): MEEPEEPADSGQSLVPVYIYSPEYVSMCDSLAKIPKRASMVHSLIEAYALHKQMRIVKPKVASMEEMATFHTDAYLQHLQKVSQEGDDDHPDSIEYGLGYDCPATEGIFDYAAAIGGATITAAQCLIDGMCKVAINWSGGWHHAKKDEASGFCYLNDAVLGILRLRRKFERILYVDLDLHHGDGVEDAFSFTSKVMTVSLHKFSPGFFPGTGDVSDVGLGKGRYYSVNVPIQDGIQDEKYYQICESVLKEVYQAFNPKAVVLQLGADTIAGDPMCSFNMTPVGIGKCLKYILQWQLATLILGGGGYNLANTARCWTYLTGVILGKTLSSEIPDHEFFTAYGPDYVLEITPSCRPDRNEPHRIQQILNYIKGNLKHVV

`Cc1cccc(-c2cn(CCCCCn3cccc(O)c3=S)nn2)c1` [Compound 167b, 1-(3-Tolyl)triazolylpentyl-3-hydroxypyridine-2-thione] had an inhibition at 10 µM against HDAC1 of 19%.
Turning to `N#Cc1ccc(-c2cn(CCCCCn3cccc(O)c3=O)nn2)cc1` [Compound 166d, 1-(4-Benzonitrile)triazolylpentyl-3-hydroxypyridine-2-one], the inhibition at 10 µM on HDAC1 is 70%; against HDAC8, 26%. Further, the “HDAC6 inhibition, symbol” value at HDAC6 (SAMDI) is recorded as “NI (No significant Inhibition (below 20% Inhibition))”.
Turning to `CN(C)c1ccc(-c2ccc(Cn3cccc(O)c3=S)cc2)cn1` [Compound 149h], the “HDAC1 inhibition, symbol” value at HDAC1 (SAMDI) is on record as “NI (No significant Inhibition (below 20% Inhibition))”. At HDAC8, this compound returned an inhibition at 10 µM of 34%. The IC50 on HDAC6 (SAMDI) was 2390 ± 458 nM.
On HDAC1, `O=c1c(O)cccn1CCCCCn1cc(-c2ccccc2)nn1` [Compound 159d, 1-Phenyltriazolylpentyl-3-hydroxypyridine-2-one] returned an HDAC1 % inhibition of 43%. The same compound had an HDAC8 % inhibition at HDAC8 of 30%. Moreover, the “HDAC6 inhibition, symbol” value on HDAC6 (SAMDI) is given as “NI (No significant Inhibition (below 20% Inhibition))”.
In the case of `O=c1c(O)cccn1CCCn1cc(-c2ccccc2)nn1` [Compound 159b, 1-Phenyltriazolylpropyl-3-hydroxypyridine-2-one], the inhibition at 10 µM against HDAC1 was determined as 8%; against HDAC8, 47%; at HDAC6, 41%.
Regarding `O=c1c(O)cccn1Cc1cn(-c2ccccc2)nn1` [Compound 152a, 1-Phenyltriazolylmethyl-3-hydroxypyridine-2-one], the “HDAC1 inhibition, symbol” value on HDAC1 (SAMDI) is reported as “NI (No significant Inhibition (below 20% Inhibition))”. At HDAC8, this compound displayed an inhibition at 10 µM of 17%. Besides, the “HDAC6 inhibition, symbol” value at HDAC6 (SAMDI) is recorded as “NI (No significant Inhibition (below 20% Inhibition))”.
For the compound `Oc1cccn(CCCn2cc(-c3ccccc3)nn2)c1=S` [Compound 162b, 1-Phenyltriazolylpropyl-3-hydroxypyridine-2-thione], the results for the inhibition at 10 µM on HDAC1 and at HDAC8 were 27% and 63%, respectively.
As for `N#Cc1ccc(-c2ccc(Cn3cccc(O)c3=O)cc2)cc1` [Compound 148a], the “HDAC1 inhibition, symbol” value on HDAC1 (SAMDI) was “NI (No significant Inhibition (below 20% Inhibition))”. The inhibition at 10 µM against HDAC8 stood at 16%. For the same compound, at HDAC6 (SAMDI), the “HDAC6 inhibition, symbol” value is reported as “NI (No significant Inhibition (below 20% Inhibition))”.
As to `Oc1cccn(CCCCCCn2cc(-c3ccccc3)nn2)c1=S` [Compound 162e, 1-Phenyltriazolylhexyl-3-hydroxypyridine-2-thione], the inhibition at 10 µM at HDAC1 came to 23%; on HDAC6 it was 22%.
For `Cn1cccc(O)c1=O` [Compound 142a, 1-Methyl-3-hydroxypyridine-2-one], the “HDAC1 inhibition, symbol” value at HDAC1 (SAMDI) was “NI (No significant Inhibition (below 20% Inhibition))”. Moreover, at 10 µM the inhibition against HDAC8 was 8%. The “HDAC6 inhibition, symbol” value at HDAC6 (SAMDI) was “NI (No significant Inhibition (below 20% Inhibition))”.
For the compound `O=c1c(O)cccn1Cc1ccc(-c2ccccc2)cc1` [Compound 142c, 1-(1,1′-Biphenylmethyl)-3-hydroxypyridine-2-one], on HDAC1 (SAMDI), the “HDAC1 inhibition, symbol” value is recorded as “NI (No significant Inhibition (below 20% Inhibition))”. Besides, 10 µM produced 8% inhibition on HDAC8. The “HDAC6 inhibition, symbol” value on HDAC6 (SAMDI) is recorded as “NI (No significant Inhibition (below 20% Inhibition))”.
As to `Oc1cccn(CCn2cc(-c3ccccc3)nn2)c1=S` [Compound 161, 1-Phenyltriazolylethyl-3-hydroxypyridine-2-thione], the inhibition at 10 µM against HDAC1 is 21%; on HDAC8, 56%; on HDAC6, 14%.
Regarding `CN(C)c1ccc(-n2cc(Cn3cccc(O)c3=S)nn2)cc1` [Compound 154b, 1-(4-Dimethylamino)phenylltriazolylmethyl-3-hydroxypyridine-2-thione], the “HDAC1 inhibition, symbol” value on HDAC1 (SAMDI) is reported as “NI (No significant Inhibition (below 20% Inhibition))”. Moreover, the IC50 was determined as 1870 ± 723 nM at HDAC8 (SAMDI, read-out: HDAC8 IC50) and 1020 ± 99 nM on HDAC6 (SAMDI).
Consider `CN(C)c1ccc(-c2ccc(Cn3cccc(O)c3=O)cc2)cc1` [Compound 148g, 1-(4-Dimethylamino-(1,1′-biphenylmethyl))-3-hydroxyoxypyridine-2-one], for which the “HDAC1 inhibition, symbol” value on HDAC1 (SAMDI) is on record as “NI (No significant Inhibition (below 20% Inhibition))”. Further, the inhibition at 10 µM against HDAC8 was 35%; on HDAC6, 11%.
With `CN(C)c1ccc(-c2cn(CCCCCn3cccc(O)c3=O)nn2)cc1` [Compound 166f, 1-(4-(N,N-dimethylaniline))triazolylpentyl-3-hydroxypyridine-2-one], the figures for the inhibition at 10 µM at HDAC1 and at HDAC8 were 59% and 28%, respectively. Moreover, the “HDAC6 inhibition, symbol” value on HDAC6 (SAMDI) is “NI (No significant Inhibition (below 20% Inhibition))”.
`O=c1c(O)cccn1CCCCCCCn1cc(-c2ccccc2)nn1` [Compound 159f, 1-Phenyltriazolylheptyl-3-hydroxypyridine-2-one] displayed an HDAC1 % inhibition on HDAC1 of 2%. This compound registered an HDAC8 % inhibition on HDAC8 of 42%. This compound also came in with an HDAC6 % inhibition on HDAC6 (at 10 μM, given if the IC50 was above 10 μM) of 34%.
On to `Oc1cccn(Cc2ccc(-c3ccccc3)cc2)c1=S` [Compound 144c, 1-(1,1′-Biphenylmethyl)-3-hydroxypyridine-2-thione], for which, on HDAC1 (SAMDI), the “HDAC1 inhibition, symbol” value was “NI (No significant Inhibition (below 20% Inhibition))”. In addition, the IC50 on HDAC8 (SAMDI, read-out: HDAC8 IC50) was determined as 4280 ± 1550 nM; at HDAC6 (SAMDI), 847 ± 188 nM.
As to `N#Cc1cccc(-c2ccc(Cn3cccc(O)c3=O)cc2)c1` [Compound 148b, 1-(3-Cyano-(1,1′-biphenylmethyl))-3-hydroxyoxypyridine-2-one], the “HDAC1 inhibition, symbol” value at HDAC1 (SAMDI) is reported as “NI (No significant Inhibition (below 20% Inhibition))”. For the same compound, the inhibition at 10 µM against HDAC8 was 9%. Besides, the “HDAC6 inhibition, symbol” value at HDAC6 (SAMDI) is listed as “NI (No significant Inhibition (below 20% Inhibition))”.
As to `O=c1c(O)cccn1CCCCn1cc(-c2ccccc2)nn1` [Compound 159c, 1-Phenyltriazolylbutyl-3-hydroxypyridine-2-one], at HDAC1, the HDAC1 % inhibition is reported as 12% and the inhibition at 10 µM turned out to be 15%. At HDAC8, the HDAC8 % inhibition came out at 5% and the inhibition at 10 µM was 10%. Besides, the “HDAC6 inhibition, symbol” value on HDAC6 (SAMDI) was “NI (No significant Inhibition (below 20% Inhibition))”.
For `N#Cc1cccc(-c2ccc(Cn3cccc(O)c3=S)cc2)c1` [Compound 149b, 1-(3-Cyano-(1,1′-biphenylmethyl))-3-hydroxyoxypyridine-2-thione], the “HDAC1 inhibition, symbol” value at HDAC1 (SAMDI) is reported as “NI (No significant Inhibition (below 20% Inhibition))”. Also, the IC50 is 1700 ± 717 nM on HDAC8 (SAMDI, read-out: HDAC8 IC50) and approximately 2000 nM at HDAC8 (SAMDI, read-out: HDAC8 activity (IC50)). At HDAC6, the inhibition at 10 µM was 44%.
For the compound `Cc1ccccc1-c1ccc(Cn2cccc(O)c2=O)cc1` [Compound 148f, 1-(2-Methyl-(1,1′-biphenylmethyl))-3-hydroxyoxypyridine-2-one], at HDAC1 (SAMDI), the “HDAC1 inhibition, symbol” value is on record as “NI (No significant Inhibition (below 20% Inhibition))”. This compound displayed an inhibition at 10 µM on HDAC8 of 9%. Further, the “HDAC6 inhibition, symbol” value on HDAC6 (SAMDI) was “NI (No significant Inhibition (below 20% Inhibition))”.
In the case of `O=c1c(O)cccn1CCn1cc(-c2ccccc2)nn1` [Compound 159a, 1-Phenyltriazolylethyl-3-hydroxypyridine-2-one], the inhibition at 10 µM on HDAC1 was 12%; against HDAC8, 15%. For the same compound, the “HDAC6 inhibition, symbol” value on HDAC6 (SAMDI) is on record as “NI (No significant Inhibition (below 20% Inhibition))”.
In the case of `Oc1ccc[nH]c1=S` [3-hydroxypyridine-2-thione, reference compound], at HDAC1 (SAMDI), the “HDAC1 inhibition in words” value was “inactive” and the “HDAC1 inhibition, symbol” value is given as “NI (No significant Inhibition (below 20% Inhibition))”. Moreover, the “HDAC8 inhibition in words” value at HDAC8 (SAMDI) is given as “low micromolar IC50 values”. Moreover, on HDAC8 (Table 14, read-out: HDAC 8 (nm)), the IC50 was determined as 3680 ± 1200 nM. At HDAC6 (SAMDI), the “HDAC6 inhibition in words” value was “low micromolar IC50 values” and the IC50 was determined as 681 ± 110 nM.
At HDAC1, `CN(C)c1ccc(-c2cn(CCCCCn3cccc(O)c3=S)nn2)cc1` [Compound 167f] returned an inhibition at 10 µM of 28%. In addition, the IC50 on HDAC8 (SAMDI, read-out: HDAC8 IC50) was 1480 nM; on HDAC6 (SAMDI), 1010 ± 425 nM.
In the same order, the values of `N#Cc1ccc(-c2cn(CCCCCn3cccc(O)c3=S)nn2)cc1C(F)(F)F` [Compound 167g, 1-(4-(3-Trifluomethyl)-benzonitrile)triazolylpentyl-3-hydroxypyridine-2-thione] are 55%, 2260 nM and 661 ± 121 nM.
As for `Cc1ccc(-c2ccc(Cn3cccc(O)c3=S)cc2)cc1` [Compound 149d, 1-(4-Methyl-(1,1′-biphenylmethyl))-3-hydroxyoxypyridine-2-thione], the “HDAC1 inhibition, symbol” value on HDAC1 (SAMDI) is on record as “NI (No significant Inhibition (below 20% Inhibition))”. Besides, the IC50 at HDAC8 (SAMDI, read-out: HDAC8 IC50) came out at 800 ± 304 nM; at HDAC6 (SAMDI), 454 ± 42 nM.
For `Cc1ccc(-c2cn(CCCCCn3cccc(O)c3=S)nn2)cc1` [Compound 167a, 1-(4-Tolyl)triazolylpentyl-3-hydroxypyridine-2-thione], at HDAC1, testing at 10 µM gave an inhibition of 31%.
As for `Cc1ccccc1-c1cn(CCCCCn2cccc(O)c2=O)nn1` [Compound 166c, 1-(2-Tolyl)triazolylpentyl-3-hydroxypyridine-2-one], at 10 µM the inhibition against HDAC8 was 4%. At HDAC6 (SAMDI), the “HDAC6 inhibition, symbol” value is given as “NI (No significant Inhibition (below 20% Inhibition))”.

As a reminder, the inhibition is the change of the read-out against control, counted positive when it falls.

These data come from patent US8871728B2, “Non-peptide macrocyclic histone deacetylese (HDAC) inhibitors and methods of making and using thereof” (Georgia Tech Research Corporation, priority 2007, dated 2014).
